Test results as given in PMC11979273, “A phase I study to evaluate the safety, tolerability, and pharmacokinetics of HEC113995PA·H2O, a novel dual-acting serotonergic antidepressant, in healthy subjects” (Frontiers in Pharmacology, 2025).
Like-named read-outs stand apart in the source and are kept apart here.

How the values were obtained:
[1] = Food effect study, plasma pharmacokinetics; type: in vivo, human; details: for Cmax / MRT / half-life / Vd/F / Tmax: po, 20 mg; for Vd/F: read-out: Vz/F; for Tmax: N = 18, median (min, max)
Text: (§1) A total of 18 healthy subjects of both genders, were assigned randomly to three sequences A, B, and C (n = 6). All subjects received HEC113995PA·H2O tablets, with a total of 3 times administered during the trial, once per cycle, and a washout period of ≥11 days. In sequence A, the order of administration was as follows: fasting, after a standard meal, and after a high-fat meal. In sequence B, the order of administration was after a standard meal, after a high-fat meal, and fasting. Sequence C subjects were administered in the following order: after a high-fat meal, fasting, and after a standard meal. During the fed periods, a single oral dose of HEC113995PA·H2O tablet 20 mg was administered within 30 min after consumption of a standard meal (total calories: approximately 600 kcal), or a high-fat, high-calorie meal (total calories: approximately 800 kcal–1,000 kcal, which derives about 150, 250, and 500–600 kcal from protein, carbohydrate, and fat, respectively). Serial blood samples were collected before and after each cycle for PK determination of plasma concentration and the evaluation of pharmacokinetic characteristics. Safety and tolerability were assessed on days 4 and 28.
In the first dose group of single ascending-dose study, PK blood samples were collected at 0.5 h before administration and 0.5, 1, 1.5, 2, 2.5, 3, 4, 5, 6, 8, 10, 12, 24, 36, 48, and 72 h after administration. In other SAD groups, MAD groups and food effect study, PK blood samples were collected at 0.5 h before administration, and 1, 2, 3, 4, 5, 6, 7, 8, 10, 12, 24, 48, 72, 96, 120 and 144 h after administration. Approximately 4 mL of venous blood was obtained from each collection and placed in a vacuum collection vessel containing K2EDTA anticoagulant. The blood was centrifuged and packed according to the instruction provided by the Biological Sample Detection and Analysis Unit. Briefly, all samples were centrifuged at 4°C, 1,500 g for 10 min within 0.5 h after blood collection. After centrifugation, the plasma was aliquoted into two cryogenic storage tubes. The first tube (Tube A) contained at least 0.8 mL of plasma for analytical testing, and the remaining plasma is allocated into the backup tube (Tube B). The plasma samples were stored at −80°C within 1 h after aliquoting for further analysis.
The concentration of HEC113995PA·H2O in human plasma samples (K2EDTA) was quantitatively analyzed using the LC-MS/MS method. Plasma samples (50 μL) were processed using protein precipitation with 5 μL deuterated internal standard (HEC124659) and 100 μL acetonitrile. The Shimadzu LCMS-8060 system coupled with a GL Sciences Inc. InertSustain AQ-C18 HP column (50 × 2.1 mm, 3 μm) achieved chromatographic separation through gradient elution using 0.04% TFA aqueous solution (pH 2.1) and acetonitrile at 0.4 mL/min. ESI-positive mode detection employed optimized parameters: 300°C interface temperature, 250°C DL temperature, 3 L/min nebulizer gas, and 400°C heating block temperature.
Using WinNonlin 7.0 for non-compartmental analysis (NCA), pharmacokinetic (PK) parameters were meticulously calculated based on the actual sampling times for plasma, urine, and fecal samples from each subject post-administration. These parameters encompassed a comprehensive range, including the area under the concentration–time curve (AUC), AUC from time zero (pre-dose) to the time of the last measurable concentration (AUC0-t), and AUC from time zero (pre-dose) to infinity (AUC0-∞). Additionally, maximum observed plasma concentration (Cmax), time to achieve maximum plasma concentration (Tmax), terminal elimination half-life (t1/2), elimination rate constant (Ke), apparent volume of distribution (Vd/F), clearance rate (CL/F), and mean residence time (MRT) were also determined. The AUC0-t and AUC0-∞ values were computed using the linear trapezoidal rule method. Tmax and Cmax were ascertained based on the actual observed data. […]

[2] = Food effect study, safety (adverse events); type: in vivo, human
Text: as §1
Safety indicators were assessed through adverse events (AE), clinical laboratory tests (including blood routine, blood biochemistry, urine routine), vital signs monitoring (ear temperature), pulse, respiration and blood pressure in a sitting position), 12-lead electrocardiogram (ECG) and physical examinations. Adverse events (AE) and serious adverse events (SAE) were evaluated following the criteria outlined in National Cancer Institute Common Terminology Criteria for Adverse Events (NCI-CTCAE) version 5.0.
Any adverse events that occurred in all subjects during the clinical trial were recorded with the following details: AE name, occurrence time, end time, severity, whether it was classified as a SAE, severity criteria (if applicable), treatment measures and outcomes, actions taken on investigational drug due to the AE, and the causal relationship between the AE and administrated drug, etc. Each AE was recorded separately.

[3] = Hygroscopicity; type: physicochemical; details: solid
[4] = system: rats; test: Behavioral despair models, rats; type: in vivo; details: single, multiple, and chronic administrations, unpublished data
[5] = both sexes, human, plasma, single oral 20 mg, fasted, N = 18, mean (SD)
[6] = both sexes, human, plasma, single oral 20 mg, fed with high-fat, high-calorie meal, N = 18, mean (SD)
[7] = both sexes, human, plasma, single oral 20 mg, fed with standard meal, N = 18, mean (SD)
[8] = single 20 mg tablet, fed vs fasted
[9] = FE trial 20 mg, 1 case, after a high-fat meal
[10] = FE trial 20 mg, after a high-fat meal
[11] = FE trial 20 mg, after a high-fat meal, 5 incidents
[12] = FE trial 20 mg, after a standard meal
[13] = FE trial 20 mg, fasting conditions
[14] = FE trial 20 mg, overall, 2 cases

Structure (SMILES): Cc1nc(-c2cnc(N3CCN(CCCc4c[nH]c5ccc(C#N)cc45)CC3)nc2)sc1C(N)=O [HEC113995PA·H2O]
- Cmax [1, 5]: 63 ng/mL
- MRT [1, 5]: 38.3 h
- half-life [1, 5]: 29 h
- Vd/F [1, 5]: 447 L
- Tmax ([1]; both sexes, human, plasma, single oral 20 mg, fasted): 4 h
- Cmax [1, 6]: 117 ng/mL
- MRT [1, 6]: 35.8 h
- half-life [1, 6]: 30.5 h
- Vd/F [1, 6]: 297 L
- Tmax ([1]; both sexes, human, plasma, single oral 20 mg, fed with high-fat, high-calorie meal): 5 h
- Cmax [1, 7]: 106 ng/mL
- MRT [1, 7]: 35.4 h
- half-life [1, 7]: 29.5 h
- Vd/F [1, 7]: 298 L
- Tmax ([1]; both sexes, human, plasma, single oral 20 mg, fed with standard meal): 5 h
- AUC(0-inf) [1, 5]: 1960 ng·h/mL
- AUC(0-t) [1, 5]: 1860 ng·h/mL
- food effect, increases in exposure parameters ([1]; discussion summary): 52%–93
- food impact on Tmax and t1/2 ([1]; single 20 mg tablet): no significant impacts
- increase of AUC0-∞ by food intake [1, 8]: 52.15∼58.20%
- increase of Cmax by food intake [1, 8]: 77.09∼93.45%
- increase of AUC0-∞, high-fat meal vs standard meal ([1]; single 20 mg tablet, P > 0.05): 3.97%
- increase of Cmax, high-fat meal vs standard meal ([1]; single 20 mg tablet, P > 0.05): 9.24%
- CL/F ([1]; single oral 20 mg, fasted, N = 18, mean (SD)): 10.8 (2.5) L/h
- CL/F ([1]; single oral 20 mg, fed with high-fat, high-calorie meal, N = 18, mean (SD)): 6.8 (1.5) L/h
- CL/F ([1]; single oral 20 mg, fed with standard meal, N = 18, mean (SD)): 7.1 (1.6) L/h
- safety and tolerability ([2]; 20 mg fasting, after a standard meal and after a high-fat meal): good safety and tolerability
- TRAE incidence: elevated blood bilirubin [2, 9]: 5.6%
- TRAE incidence: elevated conjugated bilirubin [2, 9]: 5.6%
- TRAE: elevated blood triglycerides [2, 10]: 1 case
- TRAE: elevated blood uric acid [2, 10]: 2 cases
- TRAE: nausea [2, 10]: 1 case
- TEAE incidence [2, 11]: 27.8%
- TRAE incidence [2, 11]: 27.8%
- TRAE: elevated blood uric acid [2, 12]: 2 cases
- TRAE: nausea [2, 12]: 1 case
- TRAE incidence ([2]; FE trial 20 mg, after a standard meal, 3 incidents): 16.7%
- TEAE incidence ([2]; FE trial 20 mg, after a standard meal, 4 incidents): 22.2%
- TEAE incidents ([2]; FE trial 20 mg, fasting administration): 6 incidents
- TRAE incidence ([2]; FE trial 20 mg, fasting administration, 4 incidents): 22.2%
- TRAE: elevated blood triglycerides [2, 13]: 1 case
- TRAE: elevated blood uric acid [2, 13]: 1 case
- TRAE: nausea [2, 13]: 2 cases
- TRAE incidence: elevated blood triglycerides [2, 14]: 11.1%
- TRAE incidence: nausea [2, 14]: 11.1%
- TRAE incidence: elevated blood uric acid ([2]; FE trial 20 mg, overall, 4 cases): 22.2%
- incidence of subjects experiencing TRAEs ([2]; FE trial 20 mg, overall, 9 subjects, 13 TRAEs): 50.0%
- incidence of subjects experiencing TEAE ([2]; FE trial 20 mg, overall, 11 subjects, 20 incidents): 61.1%
- severity of all TRAEs ([2]; FE trial 20 mg, resolved spontaneously without treatment): Grade 1
- hygroscopicity [3]: slight hygroscopicity
- duration of immobility [4]: significantly reduce
